Data reported in US11000033B2, “Ketone or oxime compound, and herbicide” (NISSAN CHEMICAL CORPORATION, priority 2014, dated 2021).

Tests used:
Format in all cases: in vivo
rice plant = test: Test Example 5: effect on crop by foliage application, plastic box (symbol b); settings: 320 g/ha, 3 weeks after application
Summary of the method: (§1)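 In a plastic box 7 cm deep filled with sterilized diluvial soil, seeds of crops and weeds such as Digitaria ciliaris, Avena fatua and Amaranthus retroflexus are sown in spots and covered with about 1.5 cm of soil before greenhouse growth at 25–30° C.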

Scirpus juncoides = test: Test Example 2: herbicidal activity, application during weed generation in submerged conditions (symbol B); settings: Table 23; application herbicide amount 320 g/ha; grade 0-5 by criteria of Test Example 1
Summary of the method: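 Submerged alluvial soil (4 cm) sown with mixed seed; greenhouse 25–30° C. 1–2 leaf: diluted emulsion onto water surface, preset dose. Visual score, 3 wk.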

[1] = system: Echinochloa crus-galli var. crus-galli; test: Test Example 4: herbicidal effect by soil treatment (symbol H); settings: 320 g/ha
Summary of the method: (§2)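 Seeds were sown in sterilized diluvial soil, covered with about 1.5 cm of soil, and the soil surface was sprayed with a water-diluted emulsion of the compound at a predetermined rate. Plants grew in a greenhouse at 25° C. to 30° C.; effects were scored visually 3 weeks after application.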

Apera spica-venti = test: Test Example 5: herbicidal effect by foliage application, plastic box (symbol L); settings: 320 g/ha, 3 weeks after application
Summary of the method: (§3)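 Seeds were sown in sterilized diluvial soil, covered with about 1.5 cm of soil and grown 14 days in a greenhouse at 25° C. to 30° C. An emulsifiable formulation diluted in water to a set rate was sprayed over foliage, and injury was scored 3 weeks later.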

Alopecurus myosuroides = test: Test Example 5: herbicidal effect by foliage application, plastic box (symbol J); settings: 320 g/ha, 3 weeks after application
Summary of the method: as §3

Abutilon theophrasti = test: Test Example 5: herbicidal effect by foliage application, plastic box (symbol M); settings: 320 g/ha, 3 weeks after application
Summary of the method: as §3

Stellaria media = test: Test Example 4: herbicidal effect by soil treatment (symbol P); settings: 320 g/ha
Summary of the method: as §2

Monochoria vaginalis = test: Test Example 1: herbicidal activity, application before weed generation in submerged conditions (symbol C); settings: application herbicide amount 320 g/ha
Summary of the method: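 Weeds are sown into submerged alluvial soil alongside transplanted 2.5-leaf rice, and the compound, as an emulsion diluted to a set rate, is applied onto the water before emergence. Rating on the 0–5 herbicidal-ratio scale follows 3 weeks of greenhouse growth at 25–30 °C.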

[2] = system: Echinochloa crus-galli var. crus-galli; test: Test Example 5: herbicidal effect by foliage application, plastic box (symbol H); settings: 320 g/ha, 3 weeks after application
Summary of the method: as §3

Digitaria ciliaris = test: Test Example 4: herbicidal effect by soil treatment (symbol F); settings: 320 g/ha
Summary of the method: as §2

beet = test: Test Example 4: effect on crop by soil treatment (symbol f); settings: 320 g/ha
Summary of the method: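 Crop seeds, among them rice, wheat, beet and rapeseed, were sown in sterilized diluvial soil and covered with about 1.5 cm of soil. Boxes were kept in a greenhouse at 25° C. to 30° C. for plant growth.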

rapeseed = test: Test Example 5: effect on crop by foliage application, plastic box (symbol g); settings: 320 g/ha, 3 weeks after application
Summary of the method: as §1

| SMILES | b: directly sowed rice plant, effect on crop (criteria 0-5) (rice plant) | Herbicidal effect grade, B: Scirpus juncoides (Scirpus juncoides) | H: Echinochloa crus-galli var. crus-galli, herbicidal effect grade [1] | L: Apera spica-venti, herbicidal effect (criteria 0-5) (Apera spica-venti) | J: Alopecurus myosuroides, herbicidal effect (criteria 0-5) (Alopecurus myosuroides) | M: Abutilon theophrasti, herbicidal effect (criteria 0-5) (Abutilon theophrasti) | P: Stellaria media, herbicidal effect grade (Stellaria media) | Herbicidal effect grade, C: Monochoria vaginalis (Monochoria vaginalis) | H: Echinochloa crus-galli var. crus-galli, herbicidal effect (criteria 0-5) [2] | F: Digitaria ciliaris, herbicidal effect grade (Digitaria ciliaris) | f: beet, effect grade on crop (beet) | g: rapeseed, effect on crop (criteria 0-5) (rapeseed) | b: directly sowed rice plant, effect on crop grade (rice plant) | L: Apera spica-venti, herbicidal effect grade (Apera spica-venti) | J: Alopecurus myosuroides, herbicidal effect grade (Alopecurus myosuroides) | M: Abutilon theophrasti, herbicidal effect grade (Abutilon theophrasti) | H: Echinochloa crus-galli var. crus-galli, herbicidal effect grade [2] | g: rapeseed, effect on crop grade (rapeseed) |
| --- | --- | --- | --- | --- | --- | --- | --- | --- | --- | --- | --- | --- | --- | --- | --- | --- | --- | --- |
| CON=C(C)CC1CC(OC(=O)N2CCN(C)CC2)=C(c2c(C)cc(C)cc2C)C1=O (stereo not drawn) [1-152] | 5 (Herbicidal ratio of 90% or more (almost completely withered)) | 0 (Herbicidal ratio of 5% or lower (almost no effect)) | 0 (Herbicidal ratio of 5% or lower (almost no effect)) | 5 (Herbicidal ratio of 90% or more (almost completely withered)) | 5 (Herbicidal ratio of 90% or more (almost completely withered)) | 4 (Herbicidal ratio of 70% or higher and lower than 90%) | 0 (Herbicidal ratio of 5% or lower (almost no effect)) | 0 (Herbicidal ratio of 5% or lower (almost no effect)) | 5 (Herbicidal ratio of 90% or more (almost completely withered)) | 0 (Herbicidal ratio of 5% or lower (almost no effect)) | 0 (Herbicidal ratio of 5% or lower (almost no effect)) | 4 (Herbicidal ratio of 70% or higher and lower than 90%) | – | – | – | – | – | – |
| C=CCN(CC=C)C(=O)OC1=C(c2c(C)cc(C)cc2C)C(=O)C(CC(C)=NOC)C1 (stereo not drawn) [1-153] | 5 (Herbicidal ratio of 90% or more (almost completely withered)) | 1 (Herbicidal ratio of 5% or higher and lower than 20%) | 0 (Herbicidal ratio of 5% or lower (almost no effect)) | 5 (Herbicidal ratio of 90% or more (almost completely withered)) | 5 (Herbicidal ratio of 90% or more (almost completely withered)) | 4 (Herbicidal ratio of 70% or higher and lower than 90%) | 0 (Herbicidal ratio of 5% or lower (almost no effect)) | 0 (Herbicidal ratio of 5% or lower (almost no effect)) | 5 (Herbicidal ratio of 90% or more (almost completely withered)) | 5 (Herbicidal ratio of 90% or more (almost completely withered)) | 0 (Herbicidal ratio of 5% or lower (almost no effect)) | 4 (Herbicidal ratio of 70% or higher and lower than 90%) | – | – | – | – | – | – |
| CON=C(C)CC1CC(OC(=O)c2ccccc2C(F)(F)F)=C(c2c(C)cc(C)cc2C)C1=O (stereo not drawn) [1-154] | 5 (Herbicidal ratio of 90% or more (almost completely withered)) | 4 (Herbicidal ratio of 70% or higher and lower than 90%) | 5 (Herbicidal ratio of 90% or more (almost completely withered)) | 5 (Herbicidal ratio of 90% or more (almost completely withered)) | 5 (Herbicidal ratio of 90% or more (almost completely withered)) | 4 (Herbicidal ratio of 70% or higher and lower than 90%) | 0 (Herbicidal ratio of 5% or lower (almost no effect)) | 2 (Herbicidal ratio of 20% or higher and lower than 40%) | 5 (Herbicidal ratio of 90% or more (almost completely withered)) | 5 (Herbicidal ratio of 90% or more (almost completely withered)) | 0 (Herbicidal ratio of 5% or lower (almost no effect)) | 4 (Herbicidal ratio of 70% or higher and lower than 90%) | – | – | – | – | – | – |
| CON=C(C)CC1CC(OC(=O)c2ccccc2OC(F)(F)F)=C(c2c(C)cc(C)cc2C)C1=O (stereo not drawn) [1-155] | 5 (Herbicidal ratio of 90% or more (almost completely withered)) | 5 (Herbicidal ratio of 90% or more (almost completely withered)) | 5 (Herbicidal ratio of 90% or more (almost completely withered)) | 5 (Herbicidal ratio of 90% or more (almost completely withered)) | 5 (Herbicidal ratio of 90% or more (almost completely withered)) | 4 (Herbicidal ratio of 70% or higher and lower than 90%) | 0 (Herbicidal ratio of 5% or lower (almost no effect)) | 1 (Herbicidal ratio of 5% or higher and lower than 20%) | 5 (Herbicidal ratio of 90% or more (almost completely withered)) | 5 (Herbicidal ratio of 90% or more (almost completely withered)) | 0 (Herbicidal ratio of 5% or lower (almost no effect)) | 4 (Herbicidal ratio of 70% or higher and lower than 90%) | – | – | – | – | – | – |
| CON=C(C)CC1CC(OC(=O)Cc2ccc(OC)cc2)=C(c2c(C)cc(C)cc2C)C1=O (stereo not drawn) [1-156] | – | 5 (Herbicidal ratio of 90% or more (almost completely withered)) | 5 (Herbicidal ratio of 90% or more (almost completely withered)) | – | – | – | 2 (Herbicidal ratio of 20% or higher and lower than 40%) | 1 (Herbicidal ratio of 5% or higher and lower than 20%) | – | 5 (Herbicidal ratio of 90% or more (almost completely withered)) | 1 (Herbicidal ratio of 5% or higher and lower than 20%) | – | 5 (Herbicidal ratio of 90% or more (almost completely withered)) | 5 (Herbicidal ratio of 90% or more (almost completely withered)) | 5 (Herbicidal ratio of 90% or more (almost completely withered)) | 4 (Herbicidal ratio of 70% or higher and lower than 90%) | 5 (Herbicidal ratio of 90% or more (almost completely withered)) | 4 (Herbicidal ratio of 70% or higher and lower than 90%) |
| CON=C(C)CC1CC(OC(=O)N(C)c2ccccc2)=C(c2c(C)cc(C)cc2C)C1=O (stereo not drawn) [1-159] | – | 1 (Herbicidal ratio of 5% or higher and lower than 20%) | 3 (Herbicidal ratio of 40% or higher and lower than 70%) | – | – | – | 0 (Herbicidal ratio of 5% or lower (almost no effect)) | 0 (Herbicidal ratio of 5% or lower (almost no effect)) | – | 4 (Herbicidal ratio of 70% or higher and lower than 90%) | 0 (Herbicidal ratio of 5% or lower (almost no effect)) | – | 3 (Herbicidal ratio of 40% or higher and lower than 70%) | 5 (Herbicidal ratio of 90% or more (almost completely withered)) | 5 (Herbicidal ratio of 90% or more (almost completely withered)) | 4 (Herbicidal ratio of 70% or higher and lower than 90%) | 4 (Herbicidal ratio of 70% or higher and lower than 90%) | 4 (Herbicidal ratio of 70% or higher and lower than 90%) |
| CON=C(C)CC1CC(OC(=O)c2c(Cl)nn(C)c2Cl)=C(c2c(C)cc(C)cc2C)C1=O (stereo not drawn) [1-160] | – | 4 (Herbicidal ratio of 70% or higher and lower than 90%) | 5 (Herbicidal ratio of 90% or more (almost completely withered)) | – | – | – | 0 (Herbicidal ratio of 5% or lower (almost no effect)) | 2 (Herbicidal ratio of 20% or higher and lower than 40%) | – | 5 (Herbicidal ratio of 90% or more (almost completely withered)) | 0 (Herbicidal ratio of 5% or lower (almost no effect)) | – | 5 (Herbicidal ratio of 90% or more (almost completely withered)) | 5 (Herbicidal ratio of 90% or more (almost completely withered)) | 5 (Herbicidal ratio of 90% or more (almost completely withered)) | 4 (Herbicidal ratio of 70% or higher and lower than 90%) | 5 (Herbicidal ratio of 90% or more (almost completely withered)) | 5 (Herbicidal ratio of 90% or more (almost completely withered)) |
